# Measurements reported in US4209521A, “Anti-depressant indole derivatives” (John Wyeth & Brother Limited, priority 1977, dated 1980).
# Entries after “also recorded” stand apart in the source; their conditions may differ.
# What was measured:
# mice = assay: Motor Activity (Exploratory behaviour in mice); assay type: in vivo, mouse; conditions: i.p., qualitative
# Protocol: The test compounds were administered i.p. to mice (3 groups of 4 per dose) at time 0. Seventy minutes later the animals were transferred to square boxes placed beneath the detector heads of Aktograph activity monitors. The exploratory activity of the mice was counted over the following 20 minute period.
# [1] = system: post-synaptic 5HT receptor; assay: 5HT Antagonism in Vitro (isolated rat ileum); assay type: cell-based
# hypertensive rats [2] = assay: Anti-hypertensive activity in deoxycorticosterone acetate hypertensive rats; assay type: in vivo, rat; conditions: for Reduction of blood pressure (in words): hypertensive rats, p.o., qualitative
# Protocol: Female rats are rendered hypertensive by unilateral nephrectomy and the s.c. implantation of a pellet containing 30 mg of deoxycorticosterone acetate. The drinking water is replaced by normale saline ad lib for the first four weeks following preparation. Blood pressure stabilise at a hypertensive level after 6 weeks. Systolic pressure is measured indirectly before dosing with a test compound using an E and M pneumatic pulse transducer and a Devices MX2 recorder. Groups of 4 rats are dosed orally with suspensions or solutions of the test compound in 0.5% hydroxypropyl-methyl-cellulose 0.9% saline vehicle. Blood pressures are recorded again at 2, 6 and 24 hours and the results, expressed as a percentage of the pre-dose values compared with those of a similar group of rats receiving vehicle alone.
# mice (CF-1) = assay: CNS Activity (Effect on Behaviour of Mice); assay type: in vivo, mouse (CF-1)
# Protocol: The test compounds are administered orally to three mice (CF-1 14 to 24 grams) at each of the following doses: 400, 127, 40 and 12.7 mg/kg. The animals are watched for two hours during which time signs of general stimulation (i.e. increased spontaneous motor activity, hyperactivity on tactile stimulation, twitching), general depression (i.e. decreased spontaneous motor activity, decreased respiration) and autonomic activity (i.e. miosis, mydriasis, diarrhoea) are noted.
# hypertensive rats [3] = assay: Another procedure for determining anti-hypertensive activity in hypertensive rats; assay type: in vivo, rat; conditions: qualitative
# [4] = system: uptake of 5-hydroxytryptamine in slices of cerebral cortex; assay: Inhibition of 5-hydroxytryptamine uptake in brain slices; assay type: cell-based, rat; conditions: for Potency Ratio (imipramine = 1.0) 5-Hydroxytryptamine: inhibition of 5-hydroxytryptamine uptake, rat cerebral cortex slices, relative to imipramine = 1.0; for Inhibition of 5-hydroxytryptamine uptake (in words): qualitative
# Protocol: The effects of test compounds on the neuronal uptake of noradrenaline into slices of cerebral cortex prepared from rat brain is determined according to the method described by Snyder, Green and Hendley, Kinetics of H^3 -norepihephrine accumulation into slices from different regions of the rat brain (J. Pharm. exp. Therap. 164: 90-102) (1968). The effects of test compounds on the uptake of 5-hydroxytryptamine is obtained in a similar manner except that H^3 5-hydroxytryptamine is used in place of H^3 noradrenaline. Concentration-response curves are obtained both for the test compound and for the standard agent, imipramine. The potency of each test compound is expressed in proportion to that of imipramine. Thus, the potency ratio for the test compound= [formula]
# [5] = system: neuronal uptake of noradrenaline into slices of cerebral cortex; assay: Inhibition of noradrenaline uptake in brain slices; assay type: cell-based, rat; conditions: for Potency Ratio (imipramine = 1.0) Noradrenaline: inhibition of noradrenaline uptake, rat cerebral cortex slices, relative to imipramine = 1.0; for Inhibition of noradrenaline uptake (in words): qualitative
# Text: Concentration-response curves are obtained both for the test compound and for the standard agent, imipramine. The potency of each test compound is expressed in proportion to that of imipramine. Thus, the potency ratio for the test compound= [formula]
# [6] = 50 mg/kg p.o., 2 hr after dosing
# [7] = 50 mg/kg p.o., 6 hr after dosing
# [8] = 50 mg/kg p.o., 24 hr after dosing
# [9] = 10 mg/kg p.o., 2 hr after dosing
# [10] = 10 mg/kg p.o., 6 hr after dosing
# [11] = 10 mg/kg p.o., 24 hr after dosing
# [12] = 25 mg/kg p.o., 2 hr after dosing
# [13] = 25 mg/kg p.o., 6 hr after dosing
# [14] = 25 mg/kg p.o., 24 hr after dosing
# [15] = mice, oral, watched for two hours
compound,measurement,setting,value
"O=C(NC(=O)c1ccccc1)NC1CCN(Cc2c[nH]c3ccccc23)CC1 [Compound I, 1-[1-(indol-3-ylmethyl)piperid-4-yl]-3-benzoyl urea]",Effect on exploratory behaviour (in words),mice,virtually without effect
same,5HT antagonism: effect on responses of isolated rat ileum to 5-hydroxytryptamine,"[1]; 10^-6 M, isolated rat ileum",the responses to the subsequent administration of 5HT were not affected
same,Direct effect on the isolated rat ileum preparation,"[1]; 10^-6 M, isolated rat ileum",caused the preparation to relax
same,Antagonism of the post-synaptic 5HT receptor in vitro (in words),"[1]; in vitro, summary statement",does not antagonise the post-synaptic 5HT receptor in vitro
same,BP (systolic blood pressure),hypertensive rats [2]; [6],90 % control
same,HR (heart rate),hypertensive rats [2]; [6],101 % control
same,BP (systolic blood pressure),hypertensive rats [2]; [7],102 % control
same,HR (heart rate),hypertensive rats [2]; [7],98 % control
same,BP (systolic blood pressure),hypertensive rats [2]; [8],106 % control
same,HR (heart rate),hypertensive rats [2]; [8],84 % control
same,Reduction of blood pressure (in words),hypertensive rats [2],without significant activity; also recorded: does not induce marked CNS depression in animals or significantly reduce the blood pressure of hypertensive rats
same,CNS depression / signs of sedation (in words),"mice (CF-1); mouse, in vivo",does not induce marked CNS depression in animals
same,Lowest Dose to induce effect: Decreased activity,"mice (CF-1); mouse, in vivo, po, 120 min",400 mg/kg p.o.
same,Lowest Dose to induce effect: Slight weakness,"mice (CF-1); mouse, in vivo, po, 120 min",400 mg/kg p.o.
same,Anti-hypertensive activity (in words),hypertensive rats [3],moderate activity
same,Potency Ratio (imipramine = 1.0) 5-Hydroxytryptamine,[4],10.0
same,Inhibition of 5-hydroxytryptamine uptake (in words),[4],potent inhibitors of 5HT uptake
same,Potency Ratio (imipramine = 1.0) Noradrenaline,[5],0.06
same,Inhibition of noradrenaline uptake (in words),[5],weak inhibitors of noradrenaline uptake
"O=C(NC(=O)c1ccccc1)NC1CCN(CCc2c[nH]c3ccccc23)CC1 [Compound II, 1-benzoyl-3-[1-(2-[3-indolyl]ethyl)piperid-4-yl]urea]",Effect on exploratory behaviour (in words),mice,marked reduction of exploratory behaviour
same,5HT antagonism: effect on responses of isolated rat ileum to 5-hydroxytryptamine,"[1]; 10^-6 M, isolated rat ileum",non-competitive blockade
same,BP (systolic blood pressure),hypertensive rats [2]; [9],64 % control
same,HR (heart rate),hypertensive rats [2]; [9],109 % control
same,BP (systolic blood pressure),hypertensive rats [2]; [10],82 % control
same,HR (heart rate),hypertensive rats [2]; [10],96 % control
same,BP (systolic blood pressure),hypertensive rats [2]; [11],99 % control
same,HR (heart rate),hypertensive rats [2]; [11],97 % control
same,BP (systolic blood pressure),hypertensive rats [2]; [12],49 % control
same,HR (heart rate),hypertensive rats [2]; [12],119 % control
same,BP (systolic blood pressure),hypertensive rats [2]; [13],52 % control
same,HR (heart rate),hypertensive rats [2]; [13],104 % control
same,BP (systolic blood pressure),hypertensive rats [2]; [14],79 % control
same,HR (heart rate),hypertensive rats [2]; [14],97 % control
same,BP (systolic blood pressure),hypertensive rats [2]; [6],51 % control
same,HR (heart rate),hypertensive rats [2]; [6],105 % control
same,BP (systolic blood pressure),hypertensive rats [2]; [7],51 % control
same,HR (heart rate),hypertensive rats [2]; [7],90 % control
same,BP (systolic blood pressure),hypertensive rats [2]; [8],62 % control
same,HR (heart rate),hypertensive rats [2]; [8],96 % control
same,Reduction of blood pressure (in words),hypertensive rats [2],marked reduction of blood pressure
same,CNS depression / signs of sedation (in words),"mice (CF-1); animals (mice), qualitative",induced signs of sedation at doses considerably lower than those of compound I required to induce a similar effect
same,Lowest Dose to induce effect: Ataxia,mice (CF-1); [15],127 mg/kg p.o.
same,Lowest Dose to induce effect: Catalepsy,mice (CF-1); [15],400 mg/kg p.o.
same,Lowest Dose to induce effect: Decreased activity,mice (CF-1); [15],4.0 mg/kg p.o.
same,Lowest Dose to induce effect: Decreased respiration,mice (CF-1); [15],400 mg/kg p.o.
same,Lowest Dose to induce effect: Ptosis,mice (CF-1); [15],40 mg/kg p.o.
same,Anti-hypertensive activity (in words),hypertensive rats [3],marked activity
same,Potency Ratio (imipramine = 1.0) 5-Hydroxytryptamine,[4],8.0
same,Inhibition of 5-hydroxytryptamine uptake (in words),[4],potent inhibitors of 5HT uptake
same,Potency Ratio (imipramine = 1.0) Noradrenaline,[5],0.2
same,Inhibition of noradrenaline uptake (in words),[5],weak inhibitors of noradrenaline uptake
"COc1ccc2[nH]cc(CN3CCC(NC(=O)NC(=O)c4ccccc4)CC3)c2c1 [Example 2, 1-[1-(5-Methoxyindol-3-ylmethyl)piperid-4-yl]-3-benzoylurea]",Potency Ratio (imipramine = 1.0) 5-Hydroxytryptamine,[4],3.2
same,Potency Ratio (imipramine = 1.0) Noradrenaline,[5],inactive
"O=C(NC(=O)c1cccs1)NC1CCN(Cc2c[nH]c3ccccc23)CC1 [Example 3, 1-[1-(Indol-3-ylmethyl)piperid-4-yl]-3-(2-thenoyl)-urea]",Potency Ratio (imipramine = 1.0) 5-Hydroxytryptamine,[4],7.8
same,Potency Ratio (imipramine = 1.0) Noradrenaline,[5],0.19
"Cc1[nH]c2ccccc2c1CN1CCC(NC(=O)NC(=O)c2ccccc2)CC1 [Example 4, 1-Benzoyl-3-[1-([2-methylindol-3-yl]methyl)piperid-4-yl]urea]",Potency Ratio (imipramine = 1.0) 5-Hydroxytryptamine,[4],0.8
same,Potency Ratio (imipramine = 1.0) Noradrenaline,[5],0.16
"O=C(NC(=O)c1ccccc1)NC1CCN(Cc2c[nH]c3ccc(O)cc23)CC1 [Example 5, 1-Benzoyl-3-[1-([5-hydroxyindol-3-yl]methyl)piperid-4-yl]urea]",Potency Ratio (imipramine = 1.0) 5-Hydroxytryptamine,[4],12.3
same,Potency Ratio (imipramine = 1.0) Noradrenaline,[5],0.2
"COc1ccc(C(=O)NC(=O)NC2CCN(Cc3c[nH]c4ccccc34)CC2)cc1 [Example 6, 3-(4-methoxybenzoyl)-1-(1-[indol-3-ylmethyl]piperid-4-yl)urea]",Potency Ratio (imipramine = 1.0) 5-Hydroxytryptamine,[4],5.0
same,Potency Ratio (imipramine = 1.0) Noradrenaline,[5],0.06
"O=C(NC(=O)c1ccc(F)cc1)NC1CCN(Cc2c[nH]c3ccccc23)CC1 [Example 8, 1-(4-Fluorobenzoyl)-3-(1-[indol-3-ylmethyl]piperid-4-yl)urea]",Potency Ratio (imipramine = 1.0) 5-Hydroxytryptamine,[4],1.04
same,Potency Ratio (imipramine = 1.0) Noradrenaline,[5],0.1
"O=C(NC(=S)NC1CCN(Cc2c[nH]c3ccccc23)CC1)c1ccccc1 [Example 10, 1-[1-(Indol-3-ylmethyl)piperid-4-yl]-3-benzoylthiourea]",Potency Ratio (imipramine = 1.0) 5-Hydroxytryptamine,[4],6.5
"COc1cccc(C(=O)NC(=O)NC2CCN(Cc3c[nH]c4ccccc34)CC2)c1 [Example 11, 3-(3-Methoxybenzoyl)-1-(1-[indol-3-ylmethyl]piperid-4-yl)urea]",Potency Ratio (imipramine = 1.0) 5-Hydroxytryptamine,[4],2.7
